Literature values as cited in patent publication US20070009923A1, “Use of bayesian networks for modeling cell signaling systems” (Massachusetts Institute of Technology, priority 2005, published 2007).

System: PKC isozymes

IC50: < 8 nM
Structure (SMILES): Cn1c2ccccc2c2c3c(c4c5ccccc5n(CCC#N)c4c21)CNC3=O [G06976]
